Laboratory results published in PubChem BioAssay (NCI).
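The concentration for 50% growth inhibition is given as GI50. TGI: concentration producing complete growth inhibition.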

Tests used:
Assay in all cases: NCI tumour cell line growth inhibition, 384-well format
786-0 renal = test system: 786-0 renal
A498 renal = test system: A498 renal
A549 NSCLC = test system: A549 NSCLC
ACHN renal = test system: ACHN renal
BT-549 breast = test system: BT-549 breast
CAKI-1 renal = test system: CAKI-1 renal
CCRF-CEM leukemia = test system: CCRF-CEM leukemia
COLO 205 colon = test system: COLO 205 colon
DU-145 prostate = test system: DU-145 prostate
EKVX NSCLC = test system: EKVX NSCLC
HCC-2998 colon = test system: HCC-2998 colon
HCT-116 colon = test system: HCT-116 colon
HCT-15 colon = test system: HCT-15 colon
HL-60(TB) leukemia = test system: HL-60(TB) leukemia
HOP-62 NSCLC = test system: HOP-62 NSCLC
HOP-92 NSCLC = test system: HOP-92 NSCLC
HS 578T breast = test system: HS 578T breast
HT29 colon = test system: HT29 colon
IGROV1 ovarian = test system: IGROV1 ovarian
K-562 leukemia = test system: K-562 leukemia
KM12 colon = test system: KM12 colon
LOX IMVI melanoma = test system: LOX IMVI melanoma
M14 melanoma = test system: M14 melanoma
MALME-3M melanoma = test system: MALME-3M melanoma
MCF7 breast = test system: MCF7 breast
MDA-MB-231 breast = test system: MDA-MB-231 breast
MDA-MB-435 melanoma = test system: MDA-MB-435 melanoma
MDA-MB-468 breast = test system: MDA-MB-468 breast
MOLT-4 leukemia = test system: MOLT-4 leukemia
NCI-H226 lung = test system: NCI-H226 lung
NCI-H23 lung = test system: NCI-H23 lung
NCI-H322M lung = test system: NCI-H322M lung
NCI-H460 NSCLC = test system: NCI-H460 NSCLC
NCI-H522 lung = test system: NCI-H522 lung
NCI/ADR-RES ovarian = test system: NCI/ADR-RES ovarian
OVCAR-3 ovarian = test system: OVCAR-3 ovarian
OVCAR-4 ovarian = test system: OVCAR-4 ovarian
OVCAR-8 ovarian = test system: OVCAR-8 ovarian
PC-3 prostate = test system: PC-3 prostate
RPMI-8226 leukemia = test system: RPMI-8226 leukemia
RXF 393 renal = test system: RXF 393 renal
SF-268 CNS = test system: SF-268 CNS
SF-295 CNS = test system: SF-295 CNS
SF-539 CNS = test system: SF-539 CNS
SK-MEL-28 melanoma = test system: SK-MEL-28 melanoma
SK-MEL-5 melanoma = test system: SK-MEL-5 melanoma
SK-OV-3 ovarian = test system: SK-OV-3 ovarian
SN12C renal = test system: SN12C renal
SNB-19 CNS = test system: SNB-19 CNS
SNB-75 CNS = test system: SNB-75 CNS
SR leukemia = test system: SR leukemia
SW-620 colon = test system: SW-620 colon
T-47D breast = test system: T-47D breast
TK-10 renal = test system: TK-10 renal
U251 glioblastoma = test system: U251 glioblastoma
UACC-257 melanoma = test system: UACC-257 melanoma
UACC-62 melanoma = test system: UACC-62 melanoma
UO-31 renal = test system: UO-31 renal

Question: CN1CCN(c2ccc(Nc3ncc4cc(C#N)c(=O)n(C5CCCC5)c4n3)cc2)CC1 was tested. Which GI50 ([…]-0 renal) did it give?
Answer: 0.755 µM

Question: What about the TGI (786-0 renal) of the same compound?
Answer: 28.2 µM

Question: And the GI50 (A498 renal)?
Answer: 1.09 µM

Question: What about the TGI (A498 renal) of the same compound?
Answer: 7.46 µM

Question: What about the GI50 (A549 NSCLC) of the same compound?
Answer: 1.04 µM

Question: What about the TGI (A549 NSCLC) of the same compound?
Answer: 16.1 µM

Question: And the GI50 (ACHN renal)?
Answer: 0.521 µM

Question: What about the TGI (ACHN renal) of the same compound?
Answer: 22.9 µM

Question: What about the GI50 (BT-549 breast) of the same compound?
Answer: 1.75 µM

Question: What about the TGI (BT-549 breast) of the same compound?
Answer: 12.2 µM

Question: And the GI50 (CAKI-1 renal)?
Answer: 0.259 µM

Question: What about the TGI (CAKI-1 renal) of the same compound?
Answer: 3.09 µM

Question: What about the GI50 (CCRF-CEM leukemia) of the same compound?
Answer: 0.365 µM

Question: And the TGI (CCRF-CEM leukemia)?
Answer: 1.72 µM

Question: And the GI50 (COLO 205 colon)?
Answer: 0.981 µM

Question: And the TGI (COLO 205 colon)?
Answer: > 100 µM

Question: And the GI50 (DU-145 prostate)?
Answer: 1.56 µM

Question: And the TGI (DU-145 prostate)?
Answer: 25.8 µM

Question: What about the GI50 (EKVX NSCLC) of the same compound?
Answer: 6.55 µM

Question: And the TGI (EKVX NSCLC)?
Answer: 27.9 µM

Question: What about the GI50 (HCC-2998 colon) of the same compound?
Answer: 1.8 µM

Question: And the TGI (HCC-2998 colon)?
Answer: 18.5 µM

Question: And the GI50 (HCT-116 colon)?
Answer: 0.372 µM

Question: And the TGI (HCT-116 colon)?
Answer: 11.1 µM

Question: And the GI50 (HCT-15 colon)?
Answer: 0.837 µM

Question: And the TGI (HCT-15 colon)?
Answer: 15.4 µM

Question: What about the GI50 (HL-60(TB) leukemia) of the same compound?
Answer: 0.0949 µM

Question: What about the TGI (HL-60(TB) leukemia) of the same compound?
Answer: 1.38 µM

Question: What about the GI50 (HOP-62 NSCLC) of the same compound?
Answer: 2.43 µM

Question: What about the TGI (HOP-62 NSCLC) of the same compound?
Answer: 14.6 µM

Question: What about the GI50 (HOP-92 NSCLC) of the same compound?
Answer: 2.03 µM

Question: And the TGI (HOP-92 NSCLC)?
Answer: 29 µM

Question: What about the GI50 (HS 578T breast) of the same compound?
Answer: 1.42 µM

Question: What about the TGI (HS 578T breast) of the same compound?
Answer: 3.95 µM

Question: And the GI50 (HT29 colon)?
Answer: 1.18 µM

Question: And the TGI (HT29 colon)?
Answer: > 100 µM

Question: And the GI50 (IGROV1 ovarian)?
Answer: 0.674 µM

Question: And the TGI (IGROV1 ovarian)?
Answer: 11 µM

Question: And the GI50 (K-562 leukemia)?
Answer: 0.462 µM

Question: And the TGI (K-562 leukemia)?
Answer: > 100 µM

Question: What about the GI50 (KM12 colon) of the same compound?
Answer: 1.02 µM

Question: What about the TGI (KM12 colon) of the same compound?
Answer: 55.5 µM

Question: What about the GI50 (LOX IMVI melanoma) of the same compound?
Answer: 0.799 µM

Question: And the TGI (LOX IMVI melanoma)?
Answer: 13.9 µM

Question: What about the GI50 (M14 melanoma) of the same compound?
Answer: 1.07 µM

Question: And the TGI (M14 melanoma)?
Answer: > 100 µM

Question: And the GI50 (MALME-3M melanoma)?
Answer: 0.535 µM

Question: And the TGI (MALME-3M melanoma)?
Answer: 92.9 µM

Question: What about the GI50 (MCF7 breast) of the same compound?
Answer: 0.299 µM

Question: And the TGI (MCF7 breast)?
Answer: 3.68 µM

Question: And the GI50 (MDA-MB-231 breast)?
Answer: 0.718 µM

Question: What about the TGI (MDA-MB-231 breast) of the same compound?
Answer: > 100 µM

Question: What about the GI50 (MDA-MB-435 melanoma) of the same compound?
Answer: 3.37 µM

Question: And the TGI (MDA-MB-435 melanoma)?
Answer: 66.9 µM

Question: What about the GI50 (MDA-MB-468 breast) of the same compound?
Answer: 1.89 µM

Question: And the TGI (MDA-MB-468 breast)?
Answer: 4.31 µM

Question: And the GI50 (MOLT-4 leukemia)?
Answer: 0.141 µM

Question: And the TGI (MOLT-4 leukemia)?
Answer: 0.532 µM

Question: And the GI50 (NCI-H226 lung)?
Answer: 0.457 µM

Question: And the TGI (NCI-H226 lung)?
Answer: 13.8 µM

Question: What about the GI50 (NCI-H23 lung) of the same compound?
Answer: 1.23 µM

Question: And the TGI (NCI-H23 lung)?
Answer: 18.7 µM

Question: What about the GI50 (NCI-H322M lung) of the same compound?
Answer: 2.22 µM

Question: And the TGI (NCI-H322M lung)?
Answer: 47.8 µM

Question: What about the GI50 (NCI-H460 NSCLC) of the same compound?
Answer: 0.271 µM

Question: What about the TGI (NCI-H460 NSCLC) of the same compound?
Answer: 11 µM

Question: And the GI50 (NCI-H522 lung)?
Answer: 1.2 µM

Question: What about the TGI (NCI-H522 lung) of the same compound?
Answer: 18.9 µM

Question: What about the GI50 (NCI/ADR-RES ovarian) of the same compound?
Answer: 8.59 µM

Question: What about the TGI (NCI/ADR-RES ovarian) of the same compound?
Answer: 34.9 µM

Question: And the GI50 (OVCAR-3 ovarian)?
Answer: 3.1 µM

Question: What about the TGI (OVCAR-3 ovarian) of the same compound?
Answer: 14.4 µM

Question: And the GI50 (OVCAR-4 ovarian)?
Answer: 27.1 µM

Question: What about the TGI (OVCAR-4 ovarian) of the same compound?
Answer: > 100 µM

Question: What about the GI50 (OVCAR-8 ovarian) of the same compound?
Answer: 4.65 µM

Question: What about the TGI (OVCAR-8 ovarian) of the same compound?
Answer: 37.2 µM

Question: And the GI50 (PC-3 prostate)?
Answer: 0.819 µM

Question: And the TGI (PC-3 prostate)?
Answer: 46.5 µM

Question: And the GI50 (RPMI-8226 leukemia)?
Answer: 0.0798 µM

Question: And the TGI (RPMI-8226 leukemia)?
Answer: 0.818 µM

Question: And the GI50 (RXF 393 renal)?
Answer: 0.727 µM

Question: And the TGI (RXF 393 renal)?
Answer: 3.14 µM

Question: What about the GI50 (SF-268 CNS) of the same compound?
Answer: 1.65 µM

Question: And the TGI (SF-268 CNS)?
Answer: 12.6 µM

Question: What about the GI50 (SF-295 CNS) of the same compound?
Answer: 0.632 µM

Question: And the TGI (SF-295 CNS)?
Answer: 19.8 µM

Question: And the GI50 (SF-539 CNS)?
Answer: 2.23 µM

Question: What about the TGI (SF-539 CNS) of the same compound?
Answer: 13.2 µM

Question: What about the GI50 (SK-MEL-28 melanoma) of the same compound?
Answer: 8.46 µM

Question: What about the TGI (SK-MEL-28 melanoma) of the same compound?
Answer: 72.1 µM

Question: What about the GI50 (SK-MEL-5 melanoma) of the same compound?
Answer: 10.9 µM

Question: And the TGI (SK-MEL-5 melanoma)?
Answer: 26.6 µM

Question: What about the GI50 (SK-OV-3 ovarian) of the same compound?
Answer: 1.04 µM

Question: What about the TGI (SK-OV-3 ovarian) of the same compound?
Answer: 29.9 µM

Question: What about the GI50 (SN12C renal) of the same compound?
Answer: 0.271 µM

Question: What about the TGI (SN12C renal) of the same compound?
Answer: 4.43 µM

Question: What about the GI50 (SNB-19 CNS) of the same compound?
Answer: 3.17 µM

Question: And the TGI (SNB-19 CNS)?
Answer: > 100 µM

Question: What about the GI50 (SNB-75 CNS) of the same compound?
Answer: 1.8 µM

Question: What about the TGI (SNB-75 CNS) of the same compound?
Answer: 10.9 µM

Question: And the GI50 (SR leukemia)?
Answer: 0.498 µM

Question: And the TGI (SR leukemia)?
Answer: 1 µM

Question: What about the GI50 (SW-620 colon) of the same compound?
Answer: 0.728 µM

Question: And the TGI (SW-620 colon)?
Answer: 28 µM

Question: And the GI50 (T-47D breast)?
Answer: 7.4 µM

Question: What about the TGI (T-47D breast) of the same compound?
Answer: > 100 µM

Question: And the GI50 (TK-10 renal)?
Answer: 1.32 µM

Question: What about the TGI (TK-10 renal) of the same compound?
Answer: 12.4 µM

Question: What about the GI50 (U251 glioblastoma) of the same compound?
Answer: 1.6 µM

Question: And the TGI (U251 glioblastoma)?
Answer: 22.4 µM

Question: What about the GI50 (UACC-257 melanoma) of the same compound?
Answer: 10.8 µM

Question: And the TGI (UACC-257 melanoma)?
Answer: 32.1 µM

Question: And the GI50 (UACC-62 melanoma)?
Answer: 1.4 µM

Question: What about the TGI (UACC-62 melanoma) of the same compound?
Answer: 23.6 µM

Question: And the GI50 (UO-31 renal)?
Answer: 0.551 µM

Question: And the TGI (UO-31 renal)?
Answer: 14.8 µM
